In patent US20030096379A1, “Method for producing tryptamine derivatives” (priority 2001, published 2003):

Experiments:
pkAAAD [1] = target: T1, pkAAAD (Sus scrofa, UniProt P80041); conditions: literature (Sourkes 1987), ratio :1; cited from earlier work
T1 construct: Frozen tissue was partially thawed in lysis buffer, then it was extracted and partially purified; from tissue; host or cells: pig kidney
T1 sequence (P80041 1-486): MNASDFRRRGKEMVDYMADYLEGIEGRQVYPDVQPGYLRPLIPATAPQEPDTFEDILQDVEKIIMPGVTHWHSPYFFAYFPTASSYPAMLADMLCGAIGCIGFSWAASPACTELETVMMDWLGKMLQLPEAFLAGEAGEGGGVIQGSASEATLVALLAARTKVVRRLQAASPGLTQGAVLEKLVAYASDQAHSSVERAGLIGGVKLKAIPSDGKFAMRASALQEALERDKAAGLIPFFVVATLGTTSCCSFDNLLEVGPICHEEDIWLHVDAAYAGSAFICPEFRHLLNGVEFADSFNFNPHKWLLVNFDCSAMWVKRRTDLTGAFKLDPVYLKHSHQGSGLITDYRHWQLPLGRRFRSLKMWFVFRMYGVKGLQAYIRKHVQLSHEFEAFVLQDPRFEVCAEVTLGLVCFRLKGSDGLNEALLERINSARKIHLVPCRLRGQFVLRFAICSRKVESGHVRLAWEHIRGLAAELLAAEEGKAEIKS

pkAAAD [2] = target: T1, pkAAAD; assay: pkAAAD-catalyzed decarboxylation rate ratio by HPLC; format: biochemical, pig; conditions: HPLC of acid-quenched aliquots, ratio to 1
Procedure: Tryptophan synthase activity was assayed by monitoring the increase in absorbance at 290 nm of a mixture containing serine, indole and PLP (Higgins, W., et al., Biochemistry, 1979, 18, 4827). TnA-catalyzed tryptophan synthesis was also measured by the 290 nm assay, while the tryptophan lyase reaction rate was measured by monitoring the reduction in NADH in reaction mixtures containing L-tryptophan and lactate dehydrogenase, indicating the amount of pyruvate released. Tryptophan decarboxylase was assayed colorimetrically by monitoring the sabsorbance at 580 nm produced by serotonin (AAADs) or tryptamine (TDCs) following treatment of reaction aliquots with Ehrlich's reagent (4-N,N-(dimethyl)aminobenzaldehyde in ethanolic HCl; Nakazawa, H.; Kumagi, H.; Yamada, H. Biochem Biophys. Res. Commun., 1974, 61, 75-82). Serotonin could be detected with approximately 5-fold higher sensitivity by this method as compared with tryptamine. The Ehrlich reagent assay using a microtiter plate format for simultaneous analysis of multiple enzyme samples may also be used. HPLC analysis was performed on acid-quenched reaction aliquots by using a base-deactivated C8 reversed-phase support (Shandon Hypersil BD8). […]

[3] = target: T2, tryptophan decarboxylase TDC1 (Camptotheca acuminata, UniProt P93082); assay: Substrate screen for tryptophan decarboxylation, TDC1; format: biochemical, C. accuminata; design: key: +: a clear ninhydrin-positive spot at the Rf of standard tryptophan derivatives after 16-65 h; (+): a weak spot in the product region; −: no product observed; NR: experiment not run; conditions: tryptophan derivative, PLP, pH 7.5, 37° C.
T2 construct: made in house; host or cells: E. coli DH5α (pKK233 plasmid from C. Nessler)
T2 sequence (P93082 1-502): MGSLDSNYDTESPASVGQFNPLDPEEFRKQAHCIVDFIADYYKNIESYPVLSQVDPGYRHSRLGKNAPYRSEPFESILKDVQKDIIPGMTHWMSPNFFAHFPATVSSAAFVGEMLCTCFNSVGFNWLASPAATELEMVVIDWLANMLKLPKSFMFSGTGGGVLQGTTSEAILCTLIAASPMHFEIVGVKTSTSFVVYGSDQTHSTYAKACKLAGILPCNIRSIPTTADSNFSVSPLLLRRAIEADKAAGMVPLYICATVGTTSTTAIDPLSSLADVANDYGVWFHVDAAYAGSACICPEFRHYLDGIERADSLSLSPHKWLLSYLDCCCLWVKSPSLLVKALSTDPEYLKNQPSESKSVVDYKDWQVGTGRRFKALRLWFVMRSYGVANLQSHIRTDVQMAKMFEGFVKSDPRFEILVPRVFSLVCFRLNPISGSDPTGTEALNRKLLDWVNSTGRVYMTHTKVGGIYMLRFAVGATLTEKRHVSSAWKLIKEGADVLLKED
Procedure: (§1) A mixture containing 1 μmole of the tryptophan derivative, 0.05 μmole of PLP and 50 μmol of L-serine in 40 mM pH 7.5 KPi buffer was warmed to 37° C., then enzyme solution was added to give a final volume of 1 mL. Aliquots (100 HL) were quenched at intervals and were evaporated in a Savant Speed-vac as in Example 6. For TLC analysis, CH2Cl2/EtOH/H2O/HOAc 49:49:1:1 was used as the solvent. The plates were visualized with short-wave UV light and ninhydrin as in Example 6.
(§2) HPLC techniques were used to monitor the decarboxylation of substituted tryptophans. Mass spectral analysis of the collected HPLC peaks was used to confirm the identity of several tryptamine derivatives, as shown in Table 5.

TDC1 = target: T3, TDC1 (Camptotheca acuminata, UniProt P93082); assay: Relative decarboxylation rates by Ehrlich's reagent, TDC1; format: biochemical, C. accuminata
T3 construct: made in house; host or cells: E. coli DH5α (pKK233 plasmid from C. Nessler)
T3 sequence (P93082 1-502): T2 sequence (P93082 1-502)
Procedure: (§3) […] Reaction aliquots were quenched in microcentrifuge capsules containing 50 μL each of 6M HCl to quench the enzyme reaction at 2, 5, and 20 min. Quenched aliquots were heated at 50° C. for 40 min with 750 μL each of Ehrlich's reagent (2:24:74 w/v/v 4-(diethyl)aminobenzaldehyde: conc HCl: ethanol). Absorbance was read at 580-nm and compared with standards of serotonin (10-250 μM) or tryptamine (50 to 2000 μM).
(§4) Relative rates for decarboxylation of L-5-hydroxytryptophan (L-5-HOtrp) and L-tryptophan were determined for TDC1 and TDC2 by use of Ehrlich's reagent, discussed in Example 10.

TDC2 = target: T4, TDC2 (Camptotheca acuminata, UniProt P93083); assay: Relative decarboxylation rates by Ehrlich's reagent, TDC2; format: biochemical, C. accuminata
T4 construct: made in house; host or cells: E. coli DH5α (pKK233 plasmid from C. Nessler)
T4 sequence (P93083 1-498): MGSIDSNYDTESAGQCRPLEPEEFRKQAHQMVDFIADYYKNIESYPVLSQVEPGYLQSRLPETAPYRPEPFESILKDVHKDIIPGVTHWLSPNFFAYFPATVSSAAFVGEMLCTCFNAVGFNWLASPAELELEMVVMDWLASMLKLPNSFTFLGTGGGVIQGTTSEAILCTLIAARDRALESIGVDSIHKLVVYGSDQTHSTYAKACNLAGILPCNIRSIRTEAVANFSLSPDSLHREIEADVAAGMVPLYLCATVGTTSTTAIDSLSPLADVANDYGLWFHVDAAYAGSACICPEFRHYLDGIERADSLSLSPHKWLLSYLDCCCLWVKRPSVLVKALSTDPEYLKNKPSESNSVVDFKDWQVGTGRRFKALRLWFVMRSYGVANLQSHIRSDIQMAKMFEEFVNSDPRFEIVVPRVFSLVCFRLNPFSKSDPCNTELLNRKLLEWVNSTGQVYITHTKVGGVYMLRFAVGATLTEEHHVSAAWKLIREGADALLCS
Procedure: as §3, §4

[4] = target: T5, pig kidney aromatic amino acid decarboxylase (pkAAAD) (Sus scrofa, UniProt P80041); assay: Substrate screen for tryptophan decarboxylation, pkAAAD; format: biochemical; design: key: +: a clear ninhydrin-positive spot at the Rf of standard tryptophan derivatives after 16-65 h; (+): a weak spot in the product region; −: no product observed; NR: experiment not run; conditions: tryptophan derivative, PLP, pH 7.5, 37° C.
T5 construct: Frozen tissue was partially thawed in lysis buffer, then it was extracted and partially purified; from tissue; host or cells: pig kidney
T5 sequence (P80041 1-486): T1 sequence (P80041 1-486)

[5] = target: T6, tryptophan decarboxylase TDC2 (Camptotheca acuminata, UniProt P93083); assay: Substrate screen for tryptophan decarboxylation, TDC2; format: biochemical, C. accuminata; design: key: +: a clear ninhydrin-positive spot at the Rf of standard tryptophan derivatives after 16-65 h; (+): a weak spot in the product region; −: no product observed; NR: experiment not run; conditions: tryptophan derivative, PLP, pH 7.5, 37° C.
T6 construct: made in house; host or cells: E. coli DH5α (pKK233 plasmid from C. Nessler)
T6 sequence (P93083 1-498): T4 sequence (P93083 1-498)
Procedure: as §1, §2

SMILES: N[C@@H](Cc1ccc(O)c(O)c1)C(=O)O [DOPA]
- accepted ratio of DOPA to L-5-hydroxytryptophan decarboxylation (pkAAAD [1]): approximately 5
- rate ratio of DOPA decarboxylation relative to that of L-5-hydroxytryptophan (pkAAAD [2]): 4.5

SMILES: N[C@@H](Cc1c[nH]c2ccccc12)C(=O)O [L-tryptophan]
- TDC1 (decarboxylation substrate screen) [3]: +
- ratio trp/5HOtrp TDC1 (relative decarboxylation rate) (TDC1; pH 7.5): 15.1
- ratio trp/5HOtrp TDC1 (relative decarboxylation rate) (TDC1; pH 8.5): 10.5
- ratio trp/5HOtrp TDC1 (relative decarboxylation rate) (TDC1; pH 9.5): 10.3
- ratio trp/5HOtrp TDC2 (relative decarboxylation rate) (TDC2; pH 7.5): 64.1
- ratio trp/5HOtrp TDC2 (relative decarboxylation rate) (TDC2; pH 8.5): 38.3
- ratio trp/5HOtrp TDC2 (relative decarboxylation rate) (TDC2; pH 9.5): 53.6
- pkAAAD (decarboxylation substrate screen) [4]: (+)
- TDC2 (decarboxylation substrate screen) [5]: +
